Values after ≈ are worked out from the molar mass of the structure shown. Read-outs that look alike come from different tables or passages of the source.
Key:
Type in all cases: cell-based
[1] = system: K. pneumoniae strains; test: MIC against K. pneumoniae strains (Table M8); settings: for MIC: Klebsiella pneumoniae, K. pneumoniae 10031
[2] = system: E. faecalis strains; test: MIC against E. faecalis strains (Table M8); settings: for MIC: Enterococcus faecalis, E. faecalis 29212
[3] = system: A. baumannii strains; test: MIC against A. baumannii strains (Table M8); settings: for MIC: Acinetobacter baumannii, BAA747, A. baumannii BAA747-1
[4] = system: H. influenzae strains; test: MIC against H. influenzae strains (Table M8); settings: for MIC: Haemophilus influenzae
Excerpt: (§1) We have collected MIC data for a total of 50 novel macrolides that this platform has produced against over 21 unique strains of B. subtilis, E. coli, S. aureus, S. pneumoniae, and H. influenzae, including several multidrug-resistant strains, with a special focus on macrolide resistant mechanisms (vide supra). Azithromycin was included as a control macrolide. CLSI standard procedures for broth dilution MIC determination were used. […] These genotypes can be constitutive or inducible. The finding that C4-epi (unnatural) isomers of the “azaketolide” macrolide class have enhanced activities relative to C4 natural isomers is very exciting.

[5] = system: S. aureus strains; test: MIC against S. aureus strains (Table M7); settings: for MIC: Staphylococcus aureus
Excerpt: as §1

[6] = system: S. pneumoniae strains; test: MIC against S. pneumoniae strains (Tables M7, M8); settings: for MIC: Streptococcus pneumoniae
Excerpt: CLSI standard procedures for broth dilution MIC determination were used. […] These genotypes can be constitutive or inducible.

[7] = system: E. coli strains; test: MIC against E. coli strains (Table M7); settings: for MIC: Escherichia coli, ATCC25922, E. coli ATCC 25922
Excerpt: as §1

[8] = H. influenzae 49247, read-out: MIC H. influenzae (49247)
[9] = H. influenzae 49766, read-out: MIC H. influenzae (49766)
[10] = ATCC29213, S. aureus ATCC 29213, read-out: MIC S. aureus (ATCC 29213)
[11] = S. aureus 183, read-out: MIC S. aureus (183)
[12] = S. aureus 506, read-out: MIC S. aureus (506)
[13] = S. aureus 1708, read-out: MIC S. aureus (1708)
[14] = USA300, S. aureus USA300, read-out: MIC S. aureus (USA300)
[15] = S. pneumoniae 160, read-out: MIC S. pneumonae (160)
[16] = S. pneumoniae 1509, read-out: MIC S. pneumoniae (1509)
[17] = S. pneumoniae 1533, read-out: MIC S. pneumoniae (1533)
[18] = S. pneumoniae 1537, read-out: MIC S. pneumoniae (1537)

| SMILES | MIC K. pneumoniae (10031) [1] [µg/mL] | MIC E. faecalis (29212) [2] [µg/mL] | MIC A. baumannii (BAA747-1) [3] [µg/mL] | MIC H. influenzae (49247) ([4]; H. influenzae 49247) [µg/mL] | MIC H. influenzae (49766) ([4]; H. influenzae 49766) [µg/mL] | MIC S. aureus (183) ([5]; S. aureus 183) [µg/mL] | MIC S. aureus (506) ([5]; S. aureus 506) [µg/mL] | MIC S. aureus (1708) ([5]; S. aureus 1708) [µg/mL] | MIC S. aureus (ATCC 29213) [5] [µg/mL] | MIC S. aureus (USA300) [5] [µg/mL] | MIC S. pneumonae (160) ([6]; S. pneumoniae 160) [µg/mL] | MIC S. pneumoniae (1509) ([6]; S. pneumoniae 1509) [µg/mL] | MIC S. pneumoniae (1533) ([6]; S. pneumoniae 1533) [µg/mL] | MIC S. pneumoniae (1537) ([6]; S. pneumoniae 1537) [µg/mL] | MIC S. pneumoniae (49619) ([6]; S. pneumoniae 49619) [µg/mL] | MIC E. coli (ATCC 25922) [7] [µg/mL] | MIC [1] [µg/mL] | MIC [2] [µg/mL] | MIC [3] [µg/mL] | MIC [4, 8] [µg/mL] | further results |
| --- | --- | --- | --- | --- | --- | --- | --- | --- | --- | --- | --- | --- | --- | --- | --- | --- | --- | --- | --- | --- | --- |
| CCC1OC(=O)C(Cc2cn[nH]c2)C(=O)C(C)C(OC2OC(C)CC(N(C)C)C2O)C(C)(OCC=Cc2cnc3ccccc3c2)CC(C)CNC(C)C2NC(=O)OC12C (mixture of isomers) [FSM-21264] | >32 | >32 | >32 | 8 | >32 | >32 | >32 | >32 | >32 | >32 | 4 | >32 | >32 | >32 | 2 | >32 | – | – | – | – | – |
| CC[C@H]1OC(=O)[C@H](C)C(=O)[C@H](C)[C@@H](O[C@@H]2OC(C)CC(N(C)C)C2O)[C@](C)(OC)CC(C)N[C@H](C)[C@H]2N(CCCCn3cc(-c4cccc(N)c4)nn3)C(=O)O[C@]12C (single isomer, unassigned) [FSM-30689] | – | – | – | – | – | – | – | – | – | – | – | – | – | – | 8 (≈ 9.83 µM) | – | > 32 | 32 (≈ 39.3 µM) | > 32 | 16 (≈ 19.7 µM) | MIC [4, 9]: > 32 µg/mL; MIC [5, 10]: > 32 µg/mL; MIC [5, 11]: > 32 µg/mL; MIC [5, 12]: > 32 µg/mL; MIC [5, 13]: > 32 µg/mL; MIC [5, 14]: > 32 µg/mL; MIC [6, 15]: 16 µg/mL (≈ 19.7 µM); MIC [6, 16]: 16 µg/mL (≈ 19.7 µM); MIC [6, 17]: > 32 µg/mL; MIC [6, 18]: > 32 µg/mL; MIC [7]: > 32 µg/mL |
| C=CC[C@@]1(OC)C[C@@H](C)CN[C@H](C)[C@H]2N(CCCCn3cc(-c4cccc(N)c4)nn3)C(=O)O[C@]2(C)[C@@H](CC)OC(=O)[C@H](C)C(=O)[C@@H](C)[C@H]1O[C@@H]1OC(C)CC(N(C)C)C1O (stereo in doubt) [FSM-21368] | 4 (≈ 4.68 µM) | 2 (≈ 2.34 µM) | 16 (≈ 18.7 µM) | 2 (≈ 2.34 µM) | 8 (≈ 9.37 µM) | >32 | >32 | 16 (≈ 18.7 µM) | 8 (≈ 9.37 µM) | 8 (≈ 9.37 µM) | 0.25 (≈ 0.293 µM) | 8 (≈ 9.37 µM) | >32 | >32 | 1 (≈ 1.17 µM) | 8 (≈ 9.37 µM) | – | – | – | – | – |
| CC[C@H]1OC(=O)[C@H](C)C(=O)[C@H](C)[C@@H](O[C@@H]2OC(C)CC(N(C)C)C2O)[C@](C)(OC)C[C@@H](C)CNC[C@H]2N(CCCCn3cc(-c4cccc(N)c4)nn3)C(=O)O[C@]12C (stereo partly shown) [FSM-11031] | – | – | – | – | – | – | – | – | – | – | – | – | – | – | – | – | 4 (≈ 4.91 µM) | 0.25 (≈ 0.307 µM) | 16 (≈ 19.7 µM) | 2 (≈ 2.46 µM) | MIC [4, 9]: 4 µg/mL (≈ 4.91 µM); MIC [5, 10]: 2 µg/mL (≈ 2.46 µM); MIC [5, 11]: > 32 µg/mL; MIC [5, 12]: > 32 µg/mL; MIC [5, 13]: 1 µg/mL (≈ 1.23 µM); MIC [5, 14]: 4 µg/mL (≈ 4.91 µM); MIC [6, 15]: 0.25 µg/mL (≈ 0.307 µM); MIC [6, 16]: 1 µg/mL (≈ 1.23 µM); MIC [6, 17]: > 32 µg/mL; MIC [6, 18]: > 32 µg/mL; MIC ([6]; S. pneumoniae 49619, read-out: MIC S. pneumoniae (49619)): 0.25 µg/mL (≈ 0.307 µM); MIC [7]: 16 µg/mL (≈ 19.7 µM) |

Source: patent publication US9982005B2, “Macrolides and methods of their preparation and use” (President and Fellows of Harvard College, priority 2013, dated 2018)
